# Assay results taken from patent publication US20120083599A1 (UNIVERSITY OF NOTTINGHAM, priority 2009, published 2012).
# Like-named read-outs stand apart in the source and are kept apart here.
# Experiments:
# biotin ligase (BirA) = biotin ligase (BirA) (Escherichia coli, UniProt P06709); test: Addition to acceptor peptide using BirA biotin ligase (HPLC); type: biochemical, E. coli; conditions: for Substrate for BirA: biotin ligase (BirA) from E. coli
# avidin [1] = target: T1, avidin (Gallus gallus, UniProt P02701); test: Binding affinity for avidin by isothermal titration calorimetry
# avidin [2] = target: T1, avidin; test: Binding to avidin after click chemistry attachment of a fluorophore (native gel)
# Procedure: 2) With protein (avidin) present: 0.29 mL 2-azidiobiotin solution (3.5 mM in Buffer A) was diluted in 0.71 mL Buffer A, then 1 mL avidin solution (0.21 mM) was added. The mixed solution was put in a shaker (25° C., 100 rpm) for 1 h. Then 0.5 mL alkynyl tag solution (10 mM in dioxane), 0.5 mL CuSO4-TTA solution (10 mM in ^tBuOH:H2O (4:1) solvents), 0.2 mL TCEP.HCl solution (50 mM in H2O), 0.5 mL NaHCO3 solution (200 mM in H2O), 0.25 mL ^tBuOH, 1 mL H2O were added to the reaction mixture. The mixture was put on the shaker (25° C., 100 rpm) for 2 h, then stored at 4° C. Buffer A: pH 7.4 20 mM phosphate, 150 mM NaCl buffer.
# other biotin ligases = conditions: cited from earlier work
# biotin ligase [3] = target: T2, biotin ligase (Saccharomyces cerevisiae, UniProt P48445); conditions: cited from earlier work
# T2 sequence (P48445 1-690): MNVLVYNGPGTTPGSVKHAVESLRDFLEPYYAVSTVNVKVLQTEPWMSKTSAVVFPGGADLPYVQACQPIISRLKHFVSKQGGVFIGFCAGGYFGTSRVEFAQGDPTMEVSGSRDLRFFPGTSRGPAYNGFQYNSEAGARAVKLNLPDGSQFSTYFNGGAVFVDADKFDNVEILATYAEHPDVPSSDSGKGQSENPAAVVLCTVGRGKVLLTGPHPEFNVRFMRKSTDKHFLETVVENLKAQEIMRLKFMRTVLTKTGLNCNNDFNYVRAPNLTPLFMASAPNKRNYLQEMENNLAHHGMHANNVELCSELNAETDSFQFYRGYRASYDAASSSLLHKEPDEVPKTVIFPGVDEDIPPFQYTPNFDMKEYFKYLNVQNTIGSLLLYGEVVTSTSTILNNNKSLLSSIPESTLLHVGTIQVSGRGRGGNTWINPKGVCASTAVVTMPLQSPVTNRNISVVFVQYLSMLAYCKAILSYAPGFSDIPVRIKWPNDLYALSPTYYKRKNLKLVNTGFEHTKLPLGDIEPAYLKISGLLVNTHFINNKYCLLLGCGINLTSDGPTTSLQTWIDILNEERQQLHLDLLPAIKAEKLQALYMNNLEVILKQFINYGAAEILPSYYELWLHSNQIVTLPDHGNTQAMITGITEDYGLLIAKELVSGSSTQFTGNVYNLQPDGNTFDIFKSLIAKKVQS
# biotin ligase [4] = conditions: cited from earlier work
# BirA = BirA (Escherichia coli, UniProt P06709); conditions: cited from earlier work
# Chain of BirA (P06709 whole entry): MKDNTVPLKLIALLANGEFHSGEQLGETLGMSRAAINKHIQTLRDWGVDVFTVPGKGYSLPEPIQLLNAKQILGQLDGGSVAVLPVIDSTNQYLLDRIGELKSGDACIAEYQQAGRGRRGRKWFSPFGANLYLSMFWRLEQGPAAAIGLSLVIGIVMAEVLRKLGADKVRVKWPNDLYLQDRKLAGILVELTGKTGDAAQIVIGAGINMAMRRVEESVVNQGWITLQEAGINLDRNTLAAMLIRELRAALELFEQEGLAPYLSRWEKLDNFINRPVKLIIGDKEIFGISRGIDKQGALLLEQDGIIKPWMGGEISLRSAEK
# Chain of biotin ligase (BirA) (P06709 whole entry): as above
# T1 sequence (P02701 25-152, species assumed): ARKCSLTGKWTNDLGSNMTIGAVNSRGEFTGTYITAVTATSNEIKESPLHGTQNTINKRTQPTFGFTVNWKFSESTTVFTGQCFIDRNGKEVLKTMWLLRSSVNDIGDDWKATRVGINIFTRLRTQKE
Compound,Substrate for BirA (biotin ligase (BirA)),Affinity for avidin (in words) (avidin [1]),Binds to avidin (avidin [1]),Binds to avidin once covalently modified (avidin [2]),Substrate for other biotin ligases (other biotin ligases),other results
6-Azidodesthiobiotin,not substrates,low affinities,Very weak,No,–,Substrate for BirA (biotin ligase (BirA); listed as E 6-azido-desthiobiotin): No
8-Azidodesthiobiotin,not substrates,low affinities,Very weak,No,Yes,Substrate for BirA (biotin ligase (BirA); listed as D 8-azido-desthiobiotin): No
[N-]=[N+]=NC(CCC[C@@H]1SC[C@@H]2NC(=O)N[C@@H]21)C(=O)O (stereo partly shown) [2-azidobiotin],Yes,moderate-good affinity,Yes,able to binded to avidin,–,"Level of conversion to acceptor peptide adduct by BirA, compared with biotin (biotin ligase (BirA); HPLC, 30 C, 1 h): very similar to that of biotin; Kd (avidin [1]; ITC, pH 7.4, 20 mM phosphate, 150 mM NaCl): ~100 nM; Binds to avidin once covalently modified (avidin [2]; listed as 2 Azidobiotin): Yes"
O=C(O)CCCC[C@@H]1SC[C@@H]2NC(=O)N[C@@H]21 [biotin],Yes,–,Yes,–,Yes,–
C#CCN1C(=O)N[C@H]2CS[C@@H](CCCCC(=O)O)[C@H]21 [cis-propargyl biotin],No,–,No/very weak,No,Yes,Substrate of Saccharomyces cerevisiae biotin ligase (biotin ligase [3]): could utilise; Substrate of Pyrococcus horikoshii biotin ligase (biotin ligase [4]): could use
C[C@@H]1NC(=O)N[C@@H]1CCCCCC(=O)O [desthiobiotin],–,–,–,–,–,Substrate of Pyrococcus horikoshii biotin ligase (biotin ligase [4]): could use
"O=C(O)CCCC[C@@H]1SC[C@@H]2CC(=O)C[C@@H]21 [ketone biotin, Ketone biotin]",Yes,–,–,No,–,BirA ligation yield (product inhibition) (BirA): ~50%
